The values below come from patent publication US10575525B2, “Benzoxazole compound or salt thereof, agricultural and horticultural insecticide comprising the compound, and method for using the insecticide” (Nihon Nohyaku Co., Ltd., priority 2016, dated 2020).

Assay [1] has as its system Laodelphax striatella. In words: Insecticidal test on Laodelphax striatella (rice seedling dip). The class given is in vivo. The conditions noted are these: Laodelphax striatellus, 192 h, rice seedlings dipped 30 seconds, 3rd-instar larvae, 8 days after inoculation, read-out: corrected mortality rate, activity level. The text has this:
Insecticidal test on Laodelphax striatella
The benzoxazole compounds represented by the general formula (1) of the present invention or salts thereof were separately dispersed in water and diluted to 500 ppm. Rice plant seedlings (variety: Nihonbare) were dipped in the agrochemical dispersions for 30 seconds. After air-dried, each seedling was put into a separate glass test tube and inoculated with ten 3rd-instar larvae of Laodelphax striatella, and then the glass test tubes were capped with cotton plugs. At 8 days after the inoculation, the numbers of surviving larvae and dead larvae were counted, the corrected mortality rate was calculated according to the formula shown below and evaluated according to the criteria shown below. Corrected mortality rate (%)=100×(Survival rate in a non-treatment plot−Survival rate in a treatment plot)/Survival rate in a non-treatment plot [Math. 2] Criteria A: the corrected mortality rate is 100%. B: the corrected mortality rate is 90 to 99%. C: the corrected mortality rate is 80 to 89%. D: the corrected mortality rate is 50 to 79%.

Assay [2] concerns Plutella xylostella. In words: Insecticidal test on Plutella xylostella (dip of Chinese cabbage seedlings with laid eggs). The conditions noted are these: 144 h, seedlings with eggs dipped about 30 seconds, 25° C., 6 days after dip treatment, criteria of Test Example 2, read-out: insecticidal effect (corrected mortality rate), activity level. Format: in vivo. The text has this: Insecticidal test on Plutella xylostella
Adults of Plutella xylostella were released onto Chinese cabbage seedlings and allowed to lay eggs thereon. At 2 days after the release of the adults, the Chinese cabbage seedlings with laid eggs were dipped for about 30 seconds in agrochemical aqueous dispersions diluted to 500 ppm, each of which contained a different kind of benzoxazole compound represented by the general formula (1) of the present invention as an active ingredient. After air-dried, the seedlings were kept in a thermostatic chamber at 25° C. At 6 days after the dip treatment, the number of hatched larvae per plot was counted, the mortality rate was calculated according to the formula shown below, and the insecticidal effect was evaluated according to the criteria of Test Example 2. This test was conducted in triplicate using 10 adults of Plutella xylostella per plot. Corrected mortality rate (%)=100×(Number of hatched larvae in a non-treatment plot−Number of hatched larvae in a treatment plot)/Number of hatched larvae in a non-treatment plot [Math. 3]

Take `CCS(=O)(=O)c1cc(C2CC2)cnc1-c1nc2cc(OC(F)(F)F)ccc2o1` [Compound 1-3, 2-(5-Cyclopropyl-3-ethylsulfonylpyridin-2-yl)-5-(trifluoromethoxy)benzo[d]oxazole]: the mortality at 500 ppm in assay [1] and in assay [2] was 100% in each case.
For `CCS(=O)(=O)c1cc(C2CC2)cnc1-c1nc2cc([S+]([O-])C(F)(F)F)ccc2o1` (stereo not shown) [Compound 1-12, 2-(5-Cyclopropyl-3-ethylsulfonylpyridin-2-yl)-5-(trifluoromethylsulfinyl)benzo[d]oxazole], the mortality at 500 ppm in assay [1] and in assay [2] was 100% in each case.

What is called mortality is the percentage killed.
